Measured values taken from patent US5521088A, “Alcohol acetyltransferase genes and use thereof” (Kirin Beer Kabushiki Kaisha, priority 1992, dated 1996).
“Also recorded” adds a separate entry of the source. Like-named read-outs stand apart in the source and are kept apart here.

B1: AATase (Saccharomyces cerevisiae S288C; N391K/T84I) (protein)
chain: MNEIDEKNQAPVQQECLKEMIQNGHARRMGSVEDLYVALNRQNLYRNFCTYGELSDYCTRDQLTLALREICLKNPTLLHIVLPIRWPNHENYYRSSEYYSRPHPVHDYISVLQELKLSGVVLNEQPEYSAVMKQILEEFKNSKGSYTAKIFKLTTTLTIPYFGPTGPSWRLICLPEEHTEKWKKFIFVSNHCMSDGRSSIHFFHDLRDELNNIKTPPKKLDYIFKYEEDYQLLRKLPEPIEKVIDFRPPYLFIPKSLLSGFIYNHLRFSSKGVCMRMDDVEKTDDVVTEIINISPTEFQAIKANIKSNIQGKCTITPFLHVCWFVSLHKWGKFFKPLNFEWLTDIFIPADCRSQLPDDDEMRQMYRYGANVGFIDFTPWISEFDMNDNKEKFWPLIEHYHEVISEALRNKKHLHGLGFNIQGFVQKYVNIDKVMCDRAIGKRRGGTLLSNVGLFNQLEEPDAKYSICDLAFGQFQGSWHQAFSLGVCSTNVKGMNIVVASTKNVVGSQESLEELCSIYKALLLGP
notes: culturing yeast cells of Saccharomyces cerevisiae KYOKAI No. 7 and recovering and purifying the crude enzyme; endogenous in cells; host or cells: Saccharomyces cerevisiae KYOKAI No. 7 (sake yeast)

How the values were obtained:
[1] = target: T1, AATase (Saccharomyces cerevisiae, UniProt P40353, N391K/T84I); test: biochemical; assay type: biochemical
T1 construct: culturing yeast cells of Saccharomyces cerevisiae KYOKAI No. 7 and recovering and purifying the crude enzyme; endogenous in cells; host or cells: Saccharomyces cerevisiae KYOKAI No. 7 (sake yeast)
T1 sequence (P40353 1-525 T84I/N391K): B1 chain

[2] = target: T1, AATase; test: biochemical; conditions: read-out: Relative activity (%)
[3] = substrate: CC(=O)SCCNC(=O)CCNC(=O)[C@H](O)C(C)(C)COP(=O)(O)OP(=O)(O)OC[C@H]1O[C@@H](n2cnc3c(N)ncnc32)[C@H](O)[C@@H]1OP(=O)(O)O; test: Km value of AATase to isoamyl alcohol and acetyl-CoA; assay type: biochemical, Saccharomyces cerevisiae; conditions: other: substrate of AATase; pH 7.5; 25.0 °C
Experimental: (§1) A 1 ml of a solution containing a buffer for AATase reaction (25 mM imidazole hydrochloride buffer (pH 7.5), 1 mM acetyl-CoA, 0.1% Triton X-100, 0.5% isoamyl alcohol, 1 mM dithiothreitol, 0.1M sodium chloride, 20% glycerol: or 10 mM phosphate buffer (pH 7.5), 1 mM acetyl-CoA, 0.1% Triton X-100, 0.5% isoamyl alcohol, 1 mM dithiothreitol, 0.1M sodium chloride, 20% glycerol) and the enzyme of the present invention was encapsulated into a 20 ml vial and reacted at 25° C. for 1 hour. After incubation, the vial was opened and the reaction was stopped by adding 0.6 g of sodium chloride. n-Butanol was added as an internal standard to the reaction mixture up to 50 ppm. The vial was capped with a teflon stopper. Then, the isoamyl acetate generated was determined with the head space gas chromatography (Shimadzu GC-9A, HSS-2A) under the following condition: […]

[4] = substrate: CC(C)CCO; test: as above; assay type: biochemical, Saccharomyces cerevisiae; conditions: other: substrate of AATase; pH 7.5; 25.0 °C
Experimental: as §1

Molecule	activity at 2000 µM [2] [%]	further results
c1cnc2c(c1)ccc1cccnc12 [1,10-phenanthroline]	–	activity at 1000 µM ([1]; read-out: Relative activity (%)): 87.9%
O=C(O)c1cc(SSc2ccc([N+](=O)[O-])c(C(=O)O)c2)ccc1[N+](=O)[O-] [DTNB, Dithiobis(2nitrobenzoic acid)]	–	Relative activity (%) ([1]; inhibitor 0.1 mM per footnote (head: 1 mM), None = 100): 0%
CCCCC/C=C\C/C=C\CCCCCCCC(=O)O [Linoleic acid]	4.3	–
CC/C=C\C/C=C\C/C=C\CCCCCCCC(=O)O [Linolenic acid]	32	–
CCCCCCCCCCCCCC(=O)O [Myristic acid]	60.5	–
CCCCCCCC/C=C\CCCCCCCC(=O)O [Oleic acid]	59.6	–
O=C(O)c1cc[c]([Hg][Cl])cc1 [PCMB, pChloromercuribenzoic acid]	–	Inhibition of the enzyme (in words) [1]: inhibited strongly; also recorded: intensively inhibited; Relative activity (%) [1]: 0%
O=S(=O)(F)Cc1ccccc1 [PMSF, Phenylmethanesulfonyl fluoride]	–	Relative activity (%) [1]: 70.2%
CCCCCCCCCCCCCCCC(=O)O [Palmitic acid]	88.1	–
CCCCCC/C=C\CCCCCCCC(=O)O [Palmitoleic acid]	16.7	–
CCCCCCCCCCCCCCCCCC(=O)O [Stearic acid]	80.5	–
B1	–	Km [3]: 0.19 mM; Km [4]: 29.8 mM
